How the values were obtained:
Assay type in all cases: in vivo, pig
pigs [1] = test: Dry matter content of muscle samples, Example 2; settings: Laboratory, 2 days post mortem
Experimental: (§1) The pigs were slaughtered at a commercial slaughter house in Sweden after a resting time of 5 h. At 45 minutes post mortem, pH (Knick portamess 751) and temperature (digital thermometer, Weber) were measured in the M. longissiumus dorsi at the level of the 10th rib. At 48 h post mortem, the entire loins were dissected from the carcasses and transported to the University of Copenhagen for further measurements. Ultimate pH was measured, as well as colour by Minolta L*a*b*. Dry matter content was determined by drying muscle samples at 105° C. for 24 h. Slices of 3 cm thickness were cut, measured and vacuum packed before being stored for a further 7 days at 2° C. At the end of the storage period samples were heated to an internal temperature of 75° C. After being cooled down, samples were stored cold at 2° C. until they were cut into slabs of 1 cm×1 cm×2.5 cm size for shear force measurement. For each animal, 8 specimens were measured and the mean maximum load was used for further analysis.

slaughter pigs [2] = test: Instrumental meat colour (CIE L*a*b*), Example 1; settings: LS mean ± SEM
[3] = test system: L. dorsi muscle of the pigs; test: sEMG peak-to-peak amplitude of L. dorsi muscle; settings: 1 weeks dietary supplementation
Text: This study used both a single and a double differential electrode configuration, with electrodes ([…] & […]; Blue Sensor, Medicotest […], Denmark) configured as described previously by Harrison et al. (Harrison, […]. Molsted, & E. M. Bartels. The uremic environment and muscle dysfunction in man and rat. Nephron. Vol 103: 33-42, 2006). Surface electromyography recordings were taken via an ML 132 amplifier connected to a ML780 PowerLab/[…] converter (AD Instruments, Chalgrove, Oxfordshire, UK) with a further connection to a MacBook Air with Chart v. 3.6.3/s Software, Peak Parameters and Spike Histogram extensions. […] Sampling speed was set to 40,000 per second. Differential recordings of sEMG signals were made via surface electrodes from the L. dorsi muscle as previously described by Andersen et al. (2008, Andersen […], Guy J H, Edwards S A & Harrison A P, Postnatal changes in electromyographic signals during piglet growth, and in relation to muscle fibre types. […] In brief, a bipolar differential electrode configuration, with disposable Ag-AgCl recording electromyography electrodes was attached to the exposed skin surface above the L. dorsi muscle, with a set inter-electrode distance of 16-19 mm (Andersen et al., 2008). […] The recorded sEMG signal was assessed in terms of peak-to-peak amplitude (mV) using Chart analysis software (AD Instruments, Chalgrove, Oxfordshire, UK).

slaughter pigs [4] = test: Cooking loss of pork chops; settings: 7 days at 2° C., LS mean ± SEM
Text: Twenty-one slaughter pigs ([Yorkshire×Swedish Landrace]×Hampshire) were raised on a commercial diet. Pigs were randomly assigned to one of three groups (n=7). The groups represented three feeding strategies, namely a Control group which received a standardized diet comprising 0.27% total methionine, and both a DLM and HMTBA group, receiving the same diet as the Control group throughout the feeding period, apart from the fact that they were fed a higher level of methionine (1.1% total methionine) during a seven day finishing period immediately prior to slaughter. The supplements were given in two forms, either as D L-methionine (DLM) or DL-2-hydroxy-4-methylthiobutanoic acid (HMTBA).
Pigs were slaughtered at a commercial slaughter house in Sweden after a resting time of 5 hours. At 45 minutes post mortem, pH (Knick portamess 751 pH-meter with an Ingold LOT glass electrode, Tech Instrumentering ApS, Denmark) and temperature (digital thermometer, Weber, Stephen Nordic, Denmark) were measured in the m. Longissimus dorsi (LD) at the level of the 10th rib. At 48 hours post mortem, the entire back was dissected from the carcass and transported under controlled conditions to the University of Copenhagen for further measurements.
Pork chops were cut perpendicular to the long axis of each LD muscle. Six 3 cm thick pork chops was sliced from each LD. Three were vacuum packed and three were packed in a high-oxygen modified atmosphere. The chops were placed in plastic trays (M71-43A white/PS; 195×144×43 mm in dimension; Frch Plast, Denmark) and placed in vacuum bags (EM-628862; O2 transmission rate=40-50 cm^3/m^2/24 h/bar, CO2 transmission rate=150 cm^3/m^2/24 h/bar, water-vapour transmission rate=2.6 g/m^2/24 h; LogiCon Nordic A/S, Denmark). The ambient air was removed from all vacuum bags using a vacuum machine (type, manufacturer, country). The bags intended for […] were first filled with a gas mixture (80% oxygen/20% carbon dioxide) before being sealed completely, whereas the bags intended for MAP were only partially sealed. […] (until 9 days post mortem). The gas composition was checked (CheckMate 9900, PBI Dansensor, Denmark) before packaging and again prior to opening, at the end of the simulated display period in order to check for leakage. The oxygen-enriched environment was well maintained (83.4%) throughout the display period for all MA packages.
Storage loss was determined as the weight loss percentage at the end of the display period (9 days post mortem) relative to the weight at the day of packaging (two days post mortem). The cooking loss was determined as the weight loss percentage between the pork chops before and after cooking. The results are given as the mean of the three pork chops in each meat pack.

pigs [5] = test: Post mortem pH and temperature in M. longissimus dorsi, Example 2
Experimental: as §1

[6] = MAP 80% O2/20% CO2 (9 days post mortem)
[7] = Slaughter house, 45 min post mortem

Compound | Dry Matter (pigs [1]) | Light reflection (L*) (slaughter pigs [2]; [6]) | Light reflection (L*) (slaughter pigs [2]; Vacuum (9 days post mortem)) | Redness (a*) (slaughter pigs [2]; Vacuum (9 days post mortem)) | Saturation index (slaughter pigs [2]; Vacuum (9 days post mortem)) | Yellowness (b*) (slaughter pigs [2]; Vacuum (9 days post mortem)) | Change in sEMG peak-to-peak amplitude between pre and post groups ([3]; 60, 150, 200 Hz) | Cooking loss (slaughter pigs [4]; MAP (80% O2 + 20% CO2)) | Cooking loss (slaughter pigs [4]; Vacuum) | pH (pigs [5]; Laboratory, 2 days post mortem) | Temperature (pigs [5]; [7]) | pH (pigs [5]; [7]) | Improvement in muscle growth/performance (sEMG peak-to-peak amplitude) cf CONT (untreated) levels [3]
CSCCC(N)C(=O)O (racemic) [DLM, DL-methionine] | 26% | 59.19 ± 1.30 ^A | 57.83 ± 1.25 ^A, B | 8.21 ± 0.58 ^A, B | 11.55 ± 0.67 ^A, B, C | 8.11 ± 0.46 ^A, B | clear improvement | 15.82 ± 1.86 ^A g | 21.52 ± 1.86 ^A g | 5.50 | 39 °C | 6.10 | 
CSCCC(O)C(=O)O (racemic) [HMTBA, 2-hydroxy-4-(methylthio) butanoic acid] | 29% | 58.73 ± 1.30 ^A, B | 55.34 ± 1.25 ^A, B | 8.86 ± 0.58 ^A, C | 12.22 ± 0.67 ^A | 8.39 ± 0.46 ^A |  | 18.49 ± 1.73 ^A g | 21.35 ± 1.73 ^A g | 5.40 | 39 °C | 6.20 | ~100%

— US20140314904A1, “PRE-SLAUGHTER DIET INCLUDING METHIONINE” (ADISSEO FRANCE S.A.S., priority 2011, published 2014)
